Assay results from patent EP0636368B1, “The use of 2- phenylmethylene -1- 3'-(amino)-2'-(hydroxy)--propoxy-imino -cyclohexane derivatives” (EGIS GYOGYSZERGYAR RT., priority 1993, dated 1995).
Converted amounts (≈) assume the structure as drawn.

How the values were obtained:
[1] = tested on: lesions of gastric mucosa; experiment: Test with ethanol containing hydrochloric acid (erosion frequency and erosion index); assay type: in vivo, Rats; settings: for Inhibition of the erosion frequency Relative activity / Inhibition of the erosion index Relative activity: ED50 of cetraxate divided by ED50 of the compound tested; for ED50: Rattus norvegicus, po, read-out: Inhibition of the erosion frequency ED50 p.o.; for ED50 / Inhibition of the erosion index ED50 p.o.: rats, peroral, conc. hydrochloric acid/absolute ethanol 1 to 50
From the text: The principle of the method consists in that, simultaneously with the administration of absolute ethanol, hydrochloric acid is introduced to the stomach. Thus, the influence on systemic gastric acid inhibition action can be eliminated by the presence of the exogenous acid.
The reagent used in this test was a mixture of concentrated aqueous hydrochloric acid and absolute ethanol in a weight ratio of 1 to 50 in accordance with the dilution ratio used by Yamazaki et al. (Japan J. Pharmacol., 55 [1991], 415 to 424). In other respects, the experiment was performed as described under test 2.1., however, in addition to the erosion index calculated from the lenghts of the erosions in mm, the ratio of occurence of animals showing at least one gastric erosion within a test group, i.e. the erosion frequency, was also evaluated.

[2] = Acute toxicity (LD50, Litchfield and Wilcoxon); settings: mouse, in vivo, po; NMRI mice of both sexes, peroral, 7 days observation; "higher than" = highest dose administered without any death
Method: The acute toxicity was determined on NMRI strain mice of both sexes weighing 20 to 25 g each by using 6 animals for each dose. The compounds to be tested were administered perorally in a volume of 20 ml/kg, the highest dose applied was 1 000 mg/kg. After the administration the animals were kept under usual laboratory conditions for 7 days. The LD50 values were calculated according to the method of Litchfield and Wilcoxon (J. Pharmacol. Exp. Ther., 96 [1949], 99).
The data given as "higher than" a certain value mean the highest dose administered without noting any death of animals.

[3] = tested on: lesions of gastric mucosa; experiment: Test with absolute ethanol (gastric mucosa lesions, erosion index); assay type: in vivo, Rats; settings: for Relative activity related to the inhibition of the free acid: gastroprotective action (absolute ethanol test) compared to the gastric acid inhibiting activity (Shay test, rats, p.o.); for activity in the test with absolute ethanol: result in words
Method: Rats of both sexes weighing 200 to 250 g, each previously starved for 24 hours, were used in this experiment. […] After one hour following the administration, the animals were killed by an overdose of ether, the stomach was excised and the alterations of gastric mucosa were examined. The lengths of the erosions were measured and summarized (expressed in mm) for each stomach to obtain the erosion index by calculating the average value of the group. The inhibition was calculated in percentage by comparing the value of the group treated with ethanol to that of the control group treated only with the vehicle. Various doses of the compounds to be tested were administered, perorally, in a volume of 5 ml/kg using a pretreatment time of 60 minutes. Eight rats were used for each dose. (A. Robert, Gastroenterology 77 [1979], 761 to 767). In the test with absolute ethanol which is useful for showing the gastroprotective activity, as to the effective dose range, a sharp difference can be made between the cytoprotective effect and the gastric acid inhibition, the latter resulting in the inhibition of the gastric erosion.

[4] = tested on: Helicobacter pylori; experiment: Antibacterial effect on Helicobacter pylori (MIC on blood agar); assay type: cell-based; settings: for MIC: Helicobacter pylori, 72 h, 37°C
Method: Helicobacter pylori strains used in these experiments were obtained from the biopsial samples of the stomachs of patients suffering from ulcerative diseases of the gastrointestinal system. From the pure culture of isolates a thick suspension was prepared with cysteine-inositol solution suitable for lyophilisation, and the suspension obtained was maintained in cold-resistant plastic ampoules in a deep-freezing chamber at a temperature of about -196°C. For the determination of the inhibitory effect of the compounds tested on Helicobacter pylori, blood agar containing 10 mg/litre of a stereoisomer of 23-[aminocarbonyl]-12-[{2-0-(3-amino-2,3,6-trideoxy-3-C-methyl-α-L-lyxo-hexopyranosyl)-β-D-glucopyranosyl}-oxy]-8,16-di-[chloro]-2,3,4,5,19,20,21,22,23,24,25,26,27,28,29,30-hexa-[decahydro]-5,19,34,36,38-penta-[hydroxy]-28-[{4-(methyl)-2-(methylamino)-1-(oxo)-pentyl}-amino]-3,21,25,28,41-penta-[oxo]-1H-6,9:15,18-[dietheno]-4,30-[iminomethano]-31,35-[metheno]-11,27,13-[[1]-propene[1,2]diyl[3]ylidene]-13H-10,14,2,22,26,29-benzodioxatetraazacycloheptatriacontine-1-carboxylic acid 〈vancomycin〉 and 25 mg/litre of [1R-(1R^x,3S^x,5R^x,6R^x,9R^x,11R^x,15S^x,16R^x,17R^x,18S^x,19E,21E,23E,25E,27E,29E,31E,33R^x,35S^x,36R^x,37S^x)]-33-[{3-(amino)-3,6-di-(deoxy)-β-D-mannopyranosyl}-oxy]-1,3,5,6,9,11,17,37-octa-[hydroxy]-15,16,18-tri-[methyl]-13-[oxo]-14,39-di-[oxa]-bicyclo-[33.3.1]-nonatriaconta-19,21,23,25,27,29,31-heptaene-36-carboxylic acid 〈amphotericin B〉 was used (C. A. M. McNulty and I. C. Dent: Susceptibility of clinical isolates of Campylobacter pylori to twenty one antimicrobial agents. Book of Abstracts, 4th European Congress of Clinical Microbiology, Nice [1989]).
The plates containing the strains were cultivated at 37°C for 72 hours under a gaseous atmosphere containing 10% of carbon dioxide and 5% of oxygen (D. M. Jones et al., J. Clin. Pathol., 37 [1984], 1 002).
The culture media were inoculated with a dilution of the broth culture of the strains grown overnight or with a suspension prepared from a culture obtained on a solid medium. About 10^5 of germs were applied to the surface of each plate.
A series of dilution were prepared from the compound to be tested. The MIC (minimal inhibiting concentration) value of the compounds tested was considered to be the lowest concentration inhibiting the growth of the test organism completely. The results obtained for (R,S)-2-(E)-[4'-(chloro)-phenylmethylene]-1-(E)-[3''-(hexylamino)-2''-(hydroxy)-propoxy-imino]-cyclohexane and colloidal bismuth subcitrate used as reference are given in Table IVa.

[5] = tested on: gastric acid secretion; experiment: Effect on the gastric acid secretion (Shay's method, pylorus ligation); assay type: in vivo, Wistar rats; settings: test according to Shay, result in words
Method: The influence of the compounds on the gastric acid secretion was examined on starved Wistar rats of both sexes weighing 180 to 240 g each by using Shay's method (H. Shay et al., Gastroenterology, 5 [1945], 45). The compounds to be tested were given, perorally, 3 hours before the ligation of the pylorus. Four hours after the operation, the animals were killed by an overdose of ether, the stomach was excised, the stomach content was centrifuged and the free hydrochloric acid content of the gastric juice was determined by titration in the presence of Töpfer's reagent. The percentage of inhibition and then the ED50 values were determined by calculating average values for the groups and comparing those to the average values for the control group.

**Q.** Which “Inhibition of the erosion frequency Relative activity” value [1] does the source give for `CC(C)N(CC(O)CO/N=C1\CCCC\C1=C/c1ccc(Br)cc1)C(C)C` (racemic) [(R,S)-2-(E)-[4'-(Bromo)-phenylmethylene]-1-(E)-[3''-(diisopropylamino)-2''-(hydroxy)-propoxy-imino]-cyclohexane] here?
**A.** 9.9

**Q.** What about the “Inhibition of the erosion index Relative activity” value [1] of the same molecule?
**A.** 3.7

**Q.** And the ED50 [1]?
**A.** 19.1 mg/kg

**Q.** What about the “Inhibition of the erosion index ED50 p.o.” value [1] of the same molecule?
**A.** 5.9 mg/kg

**Q.** And the LD50 at 168 h [2]?
**A.** 1000 mg/kg

**Q.** And the “Relative activity related to the inhibition of the free acid” value [3]?
**A.** about 25.0

**Q.** With `OC(CNC1CCCCC1)CO/N=C1\CCCC\C1=C/c1ccc(Cl)cc1` (racemic) [(R,S)-2-(E)-[4'-(Chloro)-phenylmethylene]-1-(E)-[3''-(cyclohexylamino)-2''-(hydroxy)-propoxy-imino]-cyclohexane] as the molecule, how does the “Inhibition of the erosion index Relative activity” value [1] read?
**A.** 2.1

**Q.** What about the ED50 [1] of the same molecule?
**A.** 30 to 60 mg/kg

**Q.** What about the “Inhibition of the erosion index ED50 p.o.” value [1] of the same molecule?
**A.** 10.3 mg/kg

**Q.** What about the LD50 at 168 h [2] of the same molecule?
**A.** > 1000 mg/kg

**Q.** What about the “Relative activity related to the inhibition of the free acid” value [3] of the same molecule?
**A.** 30.0

**Q.** With `CN(C)CC(O)CO/N=C1\CCCC\C1=C/c1ccc(Cl)cc1` (racemic) [(R,S)-2-(E)-[4'-(Chloro)-phenylmethylene]-1-(E)-[3''-(dimethylamino)-2''-(hydroxy)-propoxy-imino]-cyclohexane] as the molecule, how does the “Inhibition of the erosion index Relative activity” value [1] read?
**A.** 1.4

**Q.** And the ED50 [1]?
**A.** 30 to 60 mg/kg

**Q.** What about the “Inhibition of the erosion index ED50 p.o.” value [1] of the same molecule?
**A.** 15.8 mg/kg

**Q.** And the LD50 at 168 h [2]?
**A.** > 1000 mg/kg

**Q.** With `CCCCCCNCC(O)CO/N=C1\CCCC\C1=C/c1ccc(Cl)cc1` (racemic) [(R,S)-2-(E)-[4'-(Chloro)-phenylmethylene]-1-(E)-[3''-(hexylamino)-2''-(hydroxy)-propoxy-imino]-cyclohexane] as the molecule, how does the “Inhibition of the erosion frequency Relative activity” value [1] read?
**A.** 7.5

**Q.** What about the “Inhibition of the erosion index Relative activity” value [1] of the same molecule?
**A.** 3.1

**Q.** And the ED50 [1]?
**A.** 25.2 mg/kg

**Q.** And the “Inhibition of the erosion index ED50 p.o.” value [1]?
**A.** 7.2 mg/kg

**Q.** What about the MIC ([4]; Helicobacter pylori strain 867/90) of the same molecule?
**A.** 1.9 mg/L (≈ 4.83 µM)

**Q.** And the MIC ([4]; Helicobacter pylori strain 1596)?
**A.** 0.9 mg/L (≈ 2.29 µM)

**Q.** What about the MIC ([4]; Helicobacter pylori strain 3842) of the same molecule?
**A.** 1.9 mg/L (≈ 4.83 µM)

**Q.** And the MIC ([4]; Helicobacter pylori strain 6656)?
**A.** 1.9 mg/L (≈ 4.83 µM)

**Q.** What about the MIC ([4]; Helicobacter pylori strain 6709) of the same molecule?
**A.** 1.9 mg/L (≈ 4.83 µM)

**Q.** What about the “effectiveness against Helicobacter pylori” value ([4]; compared with colloidal bismuth subcitrate, result in words) of the same molecule?
**A.** substantially more effective in the test than the colloidal bismuth subcitrate

**Q.** And the LD50 at 168 h [2]?
**A.** > 1000 mg/kg

**Q.** And the “Relative activity related to the inhibition of the free acid” value [3]?
**A.** 25.0

**Q.** Which LD50 at 168 h [2] does the source give for `CN(CC(O)CO/N=C1\CCCC\C1=C/c1ccc(Cl)cc1)C1CCCCC1` (racemic) [(R,S)-2-(E)-[4'-(Chloro)-phenylmethylene]-1-(E)-[3''-{N-(methyl)-N-(cyclohexyl)-amino}-2''-(hydroxy)-propoxy-imino]-cyclohexane] here?
**A.** > 1000 mg/kg

**Q.** Which results are given for `CCCCCCNCC(O)CO/N=C1\CCCC\C1=C/c1ccccc1` (racemic) [(R,S)-2-(E)-[Phenylmethylene]-1-(E)-[3'-(hexylamino)-2'-(hydroxy)-propoxy-imino]-cyclohexane]?
**A.** Inhibition of the erosion frequency Relative activity [1]: 7.4; Inhibition of the erosion index Relative activity [1]: 1.9; ED50 [1]: 25.7 mg/kg; Inhibition of the erosion index ED50 p.o. [1]: 11.5 mg/kg; LD50 at 168 h [2]: > 1000 mg/kg; Relative activity related to the inhibition of the free acid [3]: about 250.0

**Q.** Which results are given for `NC[C@H]1CC[C@H](C(=O)Oc2ccc(CCC(=O)O)cc2)CC1` [cetraxate, 3-[4-{Trans-4-(aminomethyl)-cyclohexylcarbonyloxy}-phenyl]-propionic acid, reference compound]?
**A.** gastric acid secretion inhibition [5]: only a moderate gastric acid secretion inhibition; Inhibition of the erosion frequency Relative activity [1]: 1.0; Inhibition of the erosion index Relative activity [1]: 1.0; ED50 [1]: 189 mg/kg; Inhibition of the erosion index ED50 p.o. [1]: 22.0 mg/kg; LD50 at 7 days [2]: > 1000 mg/kg; activity in the test with absolute ethanol [3]: nearly identical low activity

**Q.** Which LD50 at 7 days [2] does the source give for `COc1ccc2[nH]c([S+]([O-])Cc3ncc(C)c(OC)c3C)nc2c1` (stereo not shown) [omeprazole, 5-[Methoxy]-2-[{4-(methoxy)-3,5-di-(methyl)-2-pyridyl}-methylsulfinyl]-benzimidazole, reference compound] here?
**A.** > 4000 mg/kg

**Q.** Which “activity in the test with absolute ethanol” value [3] does the source give for “the basic aluminum salt of saccharose hydrogen sulfate [sucralfate, reference compound]” here?
**A.** nearly identical low activity
